Measured values from patent publication US8828456B2, “Method of external skin application of composition containing red pine root extract” (Amorepacific Corporation, priority 2009, dated 2014).

Test: Free radical removal activity (DPPH method)
Format: biochemical
Description: Specifically, each of the extracts obtained in Example 1 and Comparative Example 1 was diluted in ethanol to varying concentrations (0, 50, 100, 200, 300 and 400 μg/mL), and 10 μl of each dilution was added to each well of a 96-well plate. A solution of 5 mM DPPH in ethanol was added to each well to a total volume of 200 μl. The resulting solution was incubated at 37° C. for 30 minutes, and then measured at 520 nm using an ELISA reader (DI Biotech, Korea). Based on the measured absorbance, free radical removal activity was calculated according to the following Equation 1. As a positive control, vitamin C known to have excellent antioxidant activity was used. Radical removal activity (%)=absorbance of control-absorbance of sample/absorbance of control×100 Equation 1

SMILES: O=C1O[C@H]([C@@H](O)CO)C(O)=C1O [Vitamin C, vitamin C]
- Radical Removal Activity (%) (50 μg/mL): 30%
- Radical Removal Activity (%) (100 μg/mL): 90%
- Radical Removal Activity (%) (200 μg/mL): 91%
- Radical Removal Activity (%) (300 μg/mL): 90%
- Radical Removal Activity (%) (400 μg/mL): 90%
